Source: patent US6491948B1, “Composition comprising isoquercetin and ascorbic acid in a sustained release form” (Merck Patent GmbH, priority 1999, dated 2002)

What was measured:
[1] = passage of the blood-brain barrier / entry into the brain; format: in vivo; conditions: isoquercetin given one hour before ascorbate
Source text: The second form of ascorbic acid, semidehydroascorbic acid (ascorbate free radical) participates in univalent redox systems that is in the antioxidant defense activity. See Bors, W. et al. (1995), Interaction of Flavonoids with Ascorbate and Determination of their Univalent Redox Potentials: a Pulse Radiolysis Study, Free Radical Biology and Medicine, vol. 19, No. 1, 45-52. This means semidehydroascorbic acid participates most likely in free radical scavenging activities. According to the article Gordon, M. H. (1996), Dietary Antioxidants in Disease Prevention, Natural Product Reports, pp. 265-273, “ascorbate appears to be the most important non-protein antioxidant in plasma” p. 270. […] See Agus, D. B. et al. (1997), Vitamin C crosses the blood-brain barrier in the oxidized form through the glucose transporters, J. Clin. Invest., 100 (11) 2842-2848. After entering the brain dehydroascorbic acid is reduced and retained as ascorbic acid.

[2] = pharmacokinetic studies: absorption and bioavailability; parameters: species or system man; conditions: in vivo
Source text: Absorbed isoquercetin interacts with ascorbate keeping it in the reduced state and, at the same time, is being protected by ascorbate by being kept in the oxidized state (Yamasaki, H. et al. (1997), Flavanoid-peroxidase reaction as a detoxification mechanism of plant cells against H2O2).

[3] = man; cited from earlier work
[4] = in vivo; cited from earlier work
[5] = in vivo; cited from earlier work; remark: listed apart in the source

| Structure (SMILES) | entry into the brain and reduction of dehydroascorbate [1] | absorption rate and bioavailability [2] | absorption compared with rutin and quercetin [3] | crossing of the blood-brain barrier [4] | concentration in brain relative to blood serum [5] [times] |
| --- | --- | --- | --- | --- | --- |
| O=c1c(O[C@@H]2O[C@H](CO)[C@@H](O)[C@H](O)[C@H]2O)c(-c2ccc(O)c(O)c2)oc2cc(O)cc(O)c12 [isoquercetin, quercetin-3-O-glucoside] | enters the brain and reduces dehydroascorbate | excellent absorption rate and bioavailability | absorbed better than rutin and quercetin | – | – |
| O=C1O[C@H]([C@@H](O)CO)C(O)=C1O [Ascorbic acid, ascorbic acid] | – | – | – | not able to cross blood-brain barrier | 10 |
| O=C1O[C@H]([C@@H](O)CO)C(=O)C1=O [dehydroascorbic acid] | – | – | – | readily enters the brain | – |
